Tests used:
anti-CD19 CAR-T cells [1] = assay: Phenotype of chronically stimulated CAR-T cells concurrently treated; assay type: cell-based, human; conditions: concurrent treatment 0.1-1000 nM, chronic stimulation 7 days
Text: T cell compositions containing T cells expressing an exemplary anti-CD19 CAR were generated from leukapheresis samples from two healthy human adult donors by a process that included immunoaffinity-based selection of T cells by separately selecting CD4+ and CD8+ cells from the samples, resulting in two compositions enriched for CD4+ and CD8+ cells, respectively, per donor. Cells of the enriched CD4+ and CD8+ compositions were separately activated with anti-CD3/anti-CD28 beads and subjected to lentiviral transduction with a vector encoding an anti-CD19 CAR. The anti-CD19 CAR contained an anti-CD19 single-chain variable fragment (scFv) derived from a murine antibody (variable region derived from FMC63), an immunoglobulin-derived spacer, a transmembrane domain derived from CD28, a costimulatory region derived from 4-1BB, and a CD3-zeta intracellular signaling domain. The expression construct in the viral vector further contained sequences encoding a surrogate surface marker for CAR expression, which was separated from the CAR-encoding sequence by a T2A ribosome skip sequence. Transduced CD4+ or CD8+ T cell populations then were separately incubated in the presence of stimulating reagents for cell expansion. Expanded CD4+ and CD8+ cells were formulated and cryopreserved separately and stored. […]

eTCR T cells = assay: Rescue treatment: proliferation of chronically stimulated eTCR T cells on re-stimulation; assay type: cell-based, human; conditions: 100 nM, 7 day re-stimulation with 20 μg/mL anti-Vbeta
Text: Primary human CD4+ and CD8+ T cells were isolated from healthy donors by immunoaffinity-based methods. The isolated CD4+ and CD8+ T cells were combined and stimulated with an anti-CD3/anti-CD28 reagent, and then were transduced with a lentiviral vector encoding an anti-human papillomavirus 16 (anti-HPV16) eTCR. The nucleotide sequences encoding the beta chain and the alpha chain of the eTCR were separated by a sequence encoding a 2A ribosome skip element. Following transduction, the cells were cultured in media containing human serum and cytokines for 9-10 days prior to further assessment.
In another experiment to assess activity of the DGKi to rescue or reverse exhaustion, eTCR T cells were chronically stimulated for 6 days as described above in the absence of Compound 17. Then, chronically stimulated eTCR T cells or freshly thawed eTCR T cells that had not been chronically stimulated were re-stimulated with 20 μg/mL plate-bound antibody against the Vbeta chain of the eTCR in the presence of 100 nM Compound 17 for 7 days. As a control, chronically stimulated eTCR T cells were re-stimulated in the absence of Compound 17 for 7 days. At the end of the 7 day re-stimulation, cell counts were determined.

anti-CD19 CAR T cells = assay: In vivo expansion and/or persistence of CAR T cells from different donors, Raji-rFluc NSG mice (Example 8); conditions: 0.3 mg/kg oral once daily Days 1-7, four donors, vs CAR T cells alone
Method: The effects of Compound 17 administration on in vivo expansion and/or persistence of CAR T cells produced from different healthy donors were assessed.

anti-CD19 CAR-T cells [2] = assay: CAR-T cell proliferation during stimulation (Incucyte); assay type: cell-based, human; conditions: 30 μg/mL plate-bound anti-idiotypic antibody, seven days
Text: (§1) T cell compositions containing T cells expressing an exemplary anti-CD19 CAR were generated from leukapheresis samples from two healthy human adult donors by a process that included immunoaffinity-based selection of T cells by separately selecting CD4+ and CD8+ cells from the samples, resulting in two compositions enriched for CD4+ and CD8+ cells, respectively, per donor. Cells of the enriched CD4+ and CD8+ compositions were separately activated with anti-CD3/anti-CD28 beads and subjected to lentiviral transduction with a vector encoding an anti-CD19 CAR. […]
(§2) Prior to use, the cryopreserved CD4+ and CD8+ CAR-engineered cell compositions were thawed and combined at approximately a 1:1 CD4:CD8 ratio for each donor to prepare a combined CD4+ CAR+ and CD8+ CAR+ T cell composition. The effects of treatment with Compound 17 at various concentrations (0.1 nM, 1 nM, 10 nM, 100 nM, or 1000 nM) added at day 0 during stimulation of the combined CAR-T cell composition with a plate-bound CAR-specific anti-idiotypic antibody (see, e.g., WO2018/023100) or during co-culture with CD19-expressing cells was then assessed.
T cell proliferation during stimulation with 30 μg/mL of plate-bound anti-CAR anti-idiotypic antibody in the presence of Compound 17 was monitored for seven days using an Incucyte imaging system. […]

[3] = system: CD19-antigen expressing target cells (K562.CD19, Granta-519, Raji); assay: CAR-T cell cytolytic function in co-culture; assay type: cell-based, human; conditions: 2.5:1 effector:target, compound present during co-culture
Text: as §1, §2
The cytolytic function of T cells treated with Compound 17 was assessed following co-culture of the combined CAR-T cell composition with various CD19-expressing lymphoma cells at a 2.5:1 effector:target ratio in the presence of Compound 17. […]

[4] = system: CD19-expressing lymphoma cells (K562.CD19, Granta-519, Raji); assay: Cytolytic activity of chronically stimulated, concurrently treated CAR-T cells, 2D co-culture; assay type: cell-based, human; conditions: concurrent treatment during chronic stimulation; 2D re-challenge without compound
Method: To simulate conditions of chronic stimulation, approximately 20,000 anti-CD19 CAR-expressing T cells of a combined CAR-T cell composition produced as described in Example 2 from two healthy adult donors were incubated with 30 µg/mL of plate-bound CAR-specific anti-idiotypic antibody (see, e.g., WO2018/023100) at 37 °C for a period of seven days. During this seven-day period, engineered CAR T cells were concurrently treated with Compound 17(0.1-1000 nM) or a vehicle control added at day 0.
Stimulated CAR T cells were then re-challenged with CD19-expressing tumor cells or tumor spheroids in the absence of Compound 17, and cytolytic activity and cytokine production were assessed.
To assess cytolytic function, the stimulated CAR-T cell composition was co-cultured with various CD19-expressing lymphoma cells at a 2.5:1 effector:target ratio. The tumor cells were engineered to express NucLight Red (NLR) and tumor cell number was monitored by Incucyte®. […] Duplicate values for cell compositions manufactured from the two different healthy donors are shown.

CC[C@H]1CN([C@@H](CC)c2ccc(C(F)(F)F)cc2)[C@H](CC)CN1c1nc(=O)n(C)c2ccc(C#N)nc12 [Compound 17, 4-((2S,5R)-2,5-diethyl-4-((S)-1-(4-(trifluoromethyl)phenyl)propyl)piperazin-1-yl)-1-methyl-2-oxo-1,2-dihydropyrido[3,2-d]pyrimidine-6-carbonitrile]
populations of highly activated CAR-T cells (CD69 and PD-1 high) (anti-CD19 CAR-T cells [1]): increased populations of highly activated CAR-T cells
proliferation of chronically stimulated eTCR T cells (cell counts) (eTCR T cells): increased proliferation of the eTCR T cells
CAR T cell expansion and/or persistence (anti-CD19 CAR T cells): CAR T cell expansion and/or persistence was increased in all mice
T cell proliferation (% confluence) (anti-CD19 CAR-T cells [2]): did not affect T cell proliferation
cytolytic function (specific lysis) [3]: did not affect cytolytic function
CAR-T cell cytolytic activity against CD19-expressing lymphoma cells [4]: decreased CAR-T cell cytolytic activity against the CD19-expressing lymphoma cells in a dose-dependent manner
